Columns and labels:
[1] = system: Staphylococcus aureus (Strain number 39149, Korean Collection for Type Cultures); test: Growth of harmful skin microbes, absorbance at 600 nm (Experimental Example 2); format: cell-based; conditions: incubated 24 hours in shaking incubator
Protocol: (§1) To compare the compositions of Example and Comparative Examples in terms of the increase in growth of beneficial skin microbes versus harmful skin microbes, the growth of each microbe was measured by the same method as described in Experimental Example 1. Specifically, using Staphylococcus epidermidis as beneficial skin microbes, and Staphylococcus aureus (Strain number 39149, Korean Collection for Type Cultures) as harmful skin microbes, samples were inoculated respectively and incubated for 24 hours in a shaking incubator. Solutions with the strains grown therein were each collected and centrifuged, and after removing the supernatant therefrom, an equivalent amount of a saline solution was added to prepare a bacterial solution.

[2] = system: Staphylococcus epidermidis; test: Growth of beneficial skin microbes, absorbance at 600 nm (Experimental Example 2); format: cell-based; conditions: for Effect of selectively promoting the growth of beneficial microbes rather than harmful microbes (in words): S. epidermidis versus S. aureus, from Table 2; for Effect of promoting the growth of beneficial microbes (in words): S. epidermidis, compared to the composition of the present invention; for OD600 (Beneficial microbes): Staphylococcus epidermidis, incubated 24 hours in shaking incubator, absorbance at 600 nm; for Increase in beneficial microbes versus harmful microbes: ratio of OD600 S. epidermidis / S. aureus, 24 hours
Protocol: as §1

| Molecule | OD600 (Harmful microbes) [1] | Effect of selectively promoting the growth of beneficial microbes rather than harmful microbes (in words) [2] | Effect of promoting the growth of beneficial microbes (in words) [2] | OD600 (Beneficial microbes) [2] | Increase in beneficial microbes versus harmful microbes [2] |
| --- | --- | --- | --- | --- | --- |
| 3-Sialyllactose [Comparative Example 2] | 0.077 | low | negligible | 0.049 | ×0.636 |
| CC(=O)N[C@H]1[C@H]([C@H](O)[C@H](O)CO)O[C@@](OC[C@H]2O[C@@H](O[C@H]3[C@H](O)[C@@H](O)C(O)O[C@@H]3CO)[C@H](O)[C@@H](O)[C@H]2O)(C(=O)O)C[C@@H]1O (stereo partly shown) [Comparative Example 3, 6-Sialyllactose] | 0.065 | low | negligible | 0.047 | ×0.723 |
